# Several values for one entry are separate records, joined by “and”; a condition that tells them apart may be missing. Identical values can stand only once.
# System: RNase
# Assay: Smart-seq2 (SS2) cDNA library generation and sequencing from 100 pg mouse RNA with the agent replacing recombinant RNase inhibitor in lysis buffer
# Format: biochemical
# Conditions: for sustained RNA stability during cDNA library generation: SS2 protocol for bulk RNA; for quality of the sequencing data compared with standard Smart-seq2 utilizing recombinant RNAse inhibitor (TaKaRa): agent used in its optimal range; for optimal range of alternative inhibitor (cDNA size distribution and yield similar to standard Smart-seq2): concentration in 1× Smart-seq2 lysis buffer, 100 pg mouse RNA
# Protocol: We started by systematically testing ranges of PVSA concentrations in the scRNAseq protocol Smart-seq2 (SS2) (5), which provides full-length read coverage across transcripts, enabling evaluation of polymerase processivity. We prepared lysis buffer containing 0-600 μg/mL of PVSA (resulting in 0-270 μg/mL in the following first-strand reaction) and 100 pg spiked mouse RNA, performed SS2 library amplification, and evaluated resulting cDNA by capillary electrophoresis (Methods).
# To examine the information yield and quality of PVSA-generated RNA-seq libraries, we sequenced SS2 libraries generated in presence of PVSA or RI (TaKaRa) and downsampled the resulting reads to allow even comparison (Methods). We analyzed library quality metrics in terms of genomic and transcriptomic mappability, base substitution rates, insertion and deletions (indels), likelihood of mismatches within the read, and average indel length.
# Bulk RNA was extracted from cultured mouse tail tip fibroblasts using TRIzol (Invitrogen). For all bulk RNAseq experiments 100 pg of RNA was used as input, if is not otherwise specified, and was added to 96-well plates containing either Smart-seq2 or Smart-seq3 standard lysis buffer or lysis buffer with varying concentrations of polyvinyl sulfonic acid (Merck, cat no. 278424). Smart-seq2 lysis buffer composition was 0.1% Triton X-100, 2.5 mM dNTP/each, […] oligo-dT (5′-[…]30VN-3′), and 4 U recombinant inhibitor (TaKaRa) or PVSA of the concentration specified for each condition; total buffer volume 4.5 ul. Smart-seq3 lysis buffer composition was 0.1% Triton X-100, 10% PEG 8000, 1 mM dNTP/each, and 1 uM Smart-seq3 oligo-dT (5′-biotin-[…] T30VN-3′), and 1 U recombinant inhibitor (TaKaRa) or PVSA of the concentration specified for each condition; total buffer volume 2 ul. For single-cell experiments, cultured HEK293FT, spleen, or liver cells in 0.5% BSA in PBS were sorted into 96 well plates containing lysis buffer using an SH800S (Sony). Single cell sorted plates were briefly centrifuged and kept at −80° C. until they were further processed. Plates containing lysis buffer and input material were then processed according to the Smart seq2 and Smart-seq3 protocols (Picelli, S. et al., 2014 and Hagemann-Jensen, M. et al., 2020), except without addition of recombinant inhibitor in the first-strand reaction mix in reactions where PVSA was used. Smart-seq2 cDNA library generation: Cell were lysed at 72° C. for 3 min in a Bioer Life ECO thermocycler and placed on ice prior to first-strand synthesis. The following reverse transcriptase reaction contained 1× Superscript II buffer, 5 mM DTT, 1M betaine, 10 mM MgCl2, 1 uM Smart-seq2 TSO (5′-[…]rGrG+G-3′), 10 U Superscript II, and 10 U recombinant inhibitor (TaKaRa) for samples containing biological inhibitor; total reaction volume 10 ul. RT thermocycles were 42° C. for 90 min, followed by 10 cycles of 42° C. for 2 min and 50° C. for 2 min. The following cDNA amplification reaction contained 1× KAPA HiFi HotStart Ready Mix and 80 nM ISPCR primers (5′-[…]-3′); total reaction volume 25 ul. Thermocycles for Smart-seq2 cDNA amplification were 98° C. for 3 min, followed by either 18 (bulk), 20 (HEK), 21 (liver) or 22 (spleen) cycles of 98° C. for 20 sec, 67° C. for 15 sec, and 72° C. for 6 min, followed by a final incubation at 72° C. for 5 min. Smart-seq3 cDNA library generation: Cell were lysed at 72° C. for 10 min and placed on ice prior to first-strand synthesis.
Compound,sustained RNA stability during cDNA library generation,quality of the sequencing data compared with standard Smart-seq2 utilizing recombinant RNAse inhibitor (TaKaRa),optimal range of alternative inhibitor (cDNA size distribution and yield similar to standard Smart-seq2),"optimal concentration of alternative inhibitor (Smart-seq2 lysis buffer, 100 pg mouse fibroblast RNA) [mg/mL]"
Dextran sulfate,did,on par,1 to 2.5 µg/mL and 1.5 to 2.5 µg/mL,–
Heparin [reference compound],did,on par,2 to 10 µg/mL,–
Sodium alginate,did,on par,200 to 400 µg/mL and 100 to 400 µg/mL,–
Fucoidan,–,on par,5 to 20 µg/mL,–
"C=CS(=O)(=O)O [VSA, Vinylsulfonic acid]",did,on par,500 to 2000 µg/mL,–
"C=CP(=O)(O)O [VPA, vinylphosphonic acid, reference compound]",did not sustain RNA stability during cDNA library generation,–,–,–
"O=S(=O)(O)CCN1CCOCC1 [MES, 2-(N-morpholino)ethanesulfonic acid]",did,on par,4000 to 12000 µg/mL,6 to 8

# Reference: patent publication US20260139245A1, “METHODS AND USES OF RIBONUCLEASE INHIBITORS” (Sequrna AB, priority 2022, published 2026)
